From ChEMBL document CHEMBL3991949, “Inhibition of DCPS” (2009) come the findings set out here.

The target of data set [1] is T1, m7GpppX diphosphatase (Mus musculus, UniProt Q9DAR7).
T1 sequence (Q9DAR7 whole entry): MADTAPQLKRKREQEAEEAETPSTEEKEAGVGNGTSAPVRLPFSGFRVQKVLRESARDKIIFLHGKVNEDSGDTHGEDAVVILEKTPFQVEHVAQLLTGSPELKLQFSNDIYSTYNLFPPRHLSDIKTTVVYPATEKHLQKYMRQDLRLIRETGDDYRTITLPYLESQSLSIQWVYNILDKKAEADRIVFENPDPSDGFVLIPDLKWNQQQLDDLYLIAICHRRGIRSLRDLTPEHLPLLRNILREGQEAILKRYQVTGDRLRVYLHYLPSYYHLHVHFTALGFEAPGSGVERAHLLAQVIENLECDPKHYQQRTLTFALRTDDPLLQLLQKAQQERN
As to the kind of experiment: Inhibition of DcpS in human SMN2 promoter driven mouse NSC-34 cell lysate assessed as increase in SMN2 expression after 18 hrs by beta-lactamase reporter gene assay. For orientation: In a reporter assay the amount or activity of a reporter protein is the signal.

Data set [2] has as its target T2, m7GpppX diphosphatase (Homo sapiens) (UniProt Q96C86).
T2 sequence (whole entry): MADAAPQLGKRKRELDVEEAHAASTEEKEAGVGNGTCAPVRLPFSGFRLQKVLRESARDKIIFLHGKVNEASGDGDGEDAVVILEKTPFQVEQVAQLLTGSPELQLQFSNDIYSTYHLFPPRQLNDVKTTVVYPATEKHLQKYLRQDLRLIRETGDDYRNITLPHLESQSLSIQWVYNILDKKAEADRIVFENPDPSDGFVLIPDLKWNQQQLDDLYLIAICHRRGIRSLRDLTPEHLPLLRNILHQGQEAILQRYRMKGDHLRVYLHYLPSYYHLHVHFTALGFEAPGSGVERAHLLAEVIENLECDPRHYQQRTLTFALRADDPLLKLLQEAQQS
In words: Binding affinity to recombinant human N-terminal GST-tagged DcpS expressed in baculovirus-infected Sf9 insect cells at 100 nM after 90 mins in presence of [125I]-streptavidin by microarray assay. Conditions: tested as the 125I-labelled form.

Data set [3] concerns the target T1, m7GpppX diphosphatase. As to the kind of experiment: Inhibition of DcpS in human SMN2 promoter driven mouse NSC-34 cells assessed as increase in SMN2 mRNA expression after 18 hrs by RT-PCR analysis.
The target in data set [4] is T3, m7GpppX diphosphatase (Homo sapiens, UniProt Q96C86).
T3 sequence (Q96C86 whole entry): T2 sequence (whole entry)
As to the kind of experiment: Inhibition of recombinant flag-tagged DcpS (unknown origin) decapping activity assessed as reduction in hydrolysis of m7GpppG to m7G using unlabeled cap structure as substrate after 30 secs by PEI cellulose thin-layer chromatographic assay.

For data set [5], the target named is T2, m7GpppX diphosphatase (Homo sapiens). In words: Inhibition of recombinant flag-tagged DcpS (unknown origin) decapping activity assessed as hydrolysis of m7GpppG to m7G at 1.6 nM using unlabeled cap structure as substrate after 30 secs by PEI cellulose thin-layer chromatographic assay (reference value: 62%). On the set-up: scale not given: the % may be the effect or the level left.

For data set [6] the target is unchanged. As to the kind of experiment: Inhibition of recombinant flag-tagged DcpS (unknown origin) decapping activity assessed as hydrolysis of m7GpppG to m7G at 8 nM using unlabeled cap structure as substrate after 30 secs by PEI cellulose thin-layer chromatographic assay (reference value: 62%). More on the design: scale not given: the % may be the effect or the level left.

Data set [7] shares this target. In words: Inhibition of recombinant flag-tagged DcpS (unknown origin) decapping activity assessed as hydrolysis of m7GpppG to m7G at 40 nM using unlabeled cap structure as substrate after 30 secs by PEI cellulose thin-layer chromatographic assay (reference value: 62%). More on the design: scale not given: the % may be the effect or the level left.
Data set [8] shares this target. As to the kind of experiment: Inhibition of recombinant flag-tagged DcpS (unknown origin) decapping activity assessed as hydrolysis of m7GpppG to m7G at 200 nM using unlabeled cap structure as substrate after 30 secs by PEI cellulose thin-layer chromatographic assay (reference value: 62%). More on the design: scale not given: the % may be the effect or the level left.

Data set [9] relates to Mus musculus. In words: Increase in SMN protein levels in spinal cord extracts isolated from SMNdelta7 SMA mouse model at 3 mg/kg/day administered orally beginning at PND04 for 5 days by immunoblot analysis. In kind it is functional.
For data set [10], the system named is Mus musculus. As to the kind of experiment: Increase in SMN protein levels in spinal cord extracts isolated from SMNdelta7 SMA mouse model at 3 mg/kg/day administered orally beginning at PND04 for 5 days by immunoblot analysis relative to SMNdelta7 carrier mouse. The data set is classed as functional. On the technique in general: A western blot detects proteins with antibodies after separation by electrophoresis.

The subject of data set [11] is Mus musculus. As to the kind of experiment: Increase in life span of SMNdelta7 SMA mouse model at 3 mg/kg/day administered orally beginning at PND04, continued for duration of their lives by Kaplan-Meier plot method relative to untreated control. In kind it is functional.
The subject of data set [12] is Mus musculus. As to the kind of experiment: Effect on life span of SMNdelta7 SMA mouse model assessed as survival at 3 mg/kg/day administered orally on onset of motor neuron loss at PND09, continued for duration of their lives by Kaplan-Meier plot method (reference value: 14 +/- 0.4 day). In kind it is functional.
Data set [13] relates to Mus musculus. In words: Induction in delay of onset of body mass loss in SMNdelta7 SMA mouse model at 3 mg/kg/day administered orally beginning at PND04, continued for duration of their lives by Kaplan-Meier plot method (reference value: 11.1 +/- 0.3 day). The data set is classed as functional.
For data set [14], the system named is Brain. As to the kind of experiment: Drug level in fetal brain extracts isolated from timed-pregnant SMNdelta7 carrier mouse prenatal dams administered orally beginning at embryonic day 11.5 for 5 days by LC-MS-MS analysis. In kind it is ADME, tissue-based. Conditions: in vivo, po, 120 h.
Data set [15] relates to Mus musculus. As to the kind of experiment: Increase in life span of timed-pregnant SMNdelta7 carrier mouse prenatal dams at 3 mg/kg/day administered orally beginning at embryonic day 11.5 continued through birth and once the pups were born. In kind it is functional.
Data set [16] relates to Mus musculus. In words: Increase in life span of timed-pregnant SMNdelta7 carrier mouse prenatal dams at 3 mg/kg/day administered orally beginning at embryonic day 11.5 continued after birth (reference value: 13.3 +/- 0.6 day). In kind it is functional.
Data set [17] deals with Mus musculus. As to the kind of experiment: Induction in delay of onset of body mass loss in timed-pregnant SMNdelta7 carrier mouse prenatal dams at 3 mg/kg/day administered orally beginning at embryonic day 11.5 continued through birth and once the pups were born. In kind it is functional.
Data set [18] deals with Mus musculus. In words: Induction in delay of onset of body mass loss in timed-pregnant SMNdelta7 carrier mouse prenatal dams at 3 mg/kg/day administered orally only during prenatal period. In kind it is functional.
In data set [19] the test system is Mus musculus. As to the kind of experiment: Toxicity in SMNdelta7 carrier mouse assessed as adverse events at 0.1 to 30 mg/kg/day administered orally beginning at PND04 for 5 days. The data set is classed as organism-based. The following applies: in vivo, po, 120 h.
Data set [20] deals with Brain. As to the kind of experiment: Drug uptake in brain of SMNdelta7 carrier mouse […] at 0.1 to 30 mg/kg/day administered orally beginning at PND04 for 5 days. The data set is classed as ADME, organism-based. Conditions: in vivo, po, 120 h.
Data set [21] deals with Mus musculus. In words: Increase in Smn promoter activity in forebrain extracts isolated from Smn knockout mouse containing LacZ:NeoR cassette inserted into mouse Smn exon 2A assessed as optimal effective dose administered orally beginning at PND04 for 5 days by beta-galactosidase light chemiluminescent reporter gene assay. In kind it is functional.
For data set [22], the system named is Mus musculus. In words: Increase in Smn promoter activity in spinal cord extracts isolated from Smn knockout mouse containing LacZ:NeoR cassette inserted into mouse Smn exon 2A assessed as optimal effective dose administered orally beginning at PND04 for 5 days by beta-galactosidase light chemiluminescent reporter gene assay. In kind it is functional.

Calls of active or inactive are those of the source. No cut-off for these calls is given here.

Broadly, the EC50 is the concentration needed to bring the measured effect to its halfway point. As for `Nc1nc(N)c2c(OCC3CCN(C(=O)c4cccc(I)c4)CC3)cccc2n1`, the EC50 on m7GpppX diphosphatase [1] worked out at 0.036 µM. For the same compound, the result in data set [2] was Active.
Turning to `Nc1nc(N)c2c(OCC3CCN(CC4CCNCC4)CC3)cccc2n1`, the EC50 on m7GpppX diphosphatase [3] amounted to 0.921 µM.
Consider `CC(=O)Nc1nc(CN2CCC(COc3cccc4nc(N)nc(N)c34)CC2)cs1`, for which the half-maximal effective concentration (EC50) on m7GpppX diphosphatase [3] was 2.54 µM.
With `Cn1ccnc1CN1CCC(COc2cccc3nc(N)nc(N)c23)CC1`, the EC50 at m7GpppX diphosphatase [3] amounted to 0.108 µM.
One may read the IC50 as the concentration at which inhibition is half-maximal. For the compound `C[n+]1cn([C@@H]2O[C@H](COP(=O)(O)OP(=O)([O-])OP(=O)(O)OC[C@H]3O[C@@H](n4cnc5c(=O)[nH]c(N)nc54)[C@H](O)[C@@H]3O)[C@@H](O)[C@H]2O)c2nc(N)[nH]c(=O)c21`, the IC50 at m7GpppX diphosphatase [4] amounted to 0.03 µM.
Regarding `Nc1nc(N)c2c(OCC3CCN(CC(F)(F)F)CC3)cccc2n1`, the EC50 at m7GpppX diphosphatase [3] stood at 0.223 µM.
Turning to `C[n+]1cn([C@@H]2O[C@H](COP(=O)(O)OP(=O)([O-])OP(=O)(O)OC[C@H]3O[C@@H](n4cnc5c(=O)[nH]c(N)nc54)[C@H](O)[C@@H]3O)[C@@H](O)[C@H]2O)c2nc(N)nc(O)c21`, the Activity in data set [5] came to 55%; in data set [6], 46%; in data set [7] it was 24%; in [8] it was 7%.
As for `Nc1nc(N)c2c(OCC3CCN(Cc4ccccc4F)CC3)cccc2n1`, the Activity with Mus musculus [9] was found to be 70%; with Mus musculus [10] it was 25%; in the data set with Mus musculus [11] it was 21%; in the data set on Mus musculus [13], 12 days; with Mus musculus [15], 30%; in the data set on Mus musculus [16], 14.1 days. For the same compound, the Activity is given as 15% in the data set on Mus musculus [17]; 10% with Mus musculus [18]; “Non-Toxic” in the data set on Mus musculus [19]; 3 mg/kg/day in the data set with Mus musculus [21]; 3 mg/kg/day in the data set on Mus musculus [22]. Besides, the Survival with Mus musculus [12] turned out to be 14.9 days. The Drug uptake entry with Brain [14] and in the data set with Brain [20] was “Dose-dependent effect” throughout.
In the case of `Nc1nc(N)c2c(OCC3CCN(c4ccccc4Cl)CC3)cccc2n1`, on m7GpppX diphosphatase [3], the EC50 is 0.795 µM.
